Here are results for one compound from patent publication US20250367170A1, “TOPICAL ANGIOTENSIN II RECEPTOR BLOCKERS (ARBS) FOR TREATING EYE CONDITIONS” (The Cleveland Clinic Foundation, priority 2022, published 2025).

SMILES strings stand for the structures.

Series [1] concerns collagen type IV. In words: IHC collagen type IV intensity in anterior and posterior stroma after alkali burn. The series is classed as in vivo, New Zealand White rabbits. The settings on record: one month. The protocol:
Multiplex immunohistochemistry (IHC) was performed using previously described methods^8 and primary antibodies (Table 7) confirmed by western blotting and IHC to recognize rabbit antigens or isotypic control antibodies (Thermo Fisher Scientific, Waltham, MA), and secondary fluorescent tagged antibodies (Table 7). The collagen type IV antibody (Cat. #AB769, Millipore, Temecula CA) was raised against purified human and bovine collagen type IV that had been affinity purified with human and bovine collagen type IV crosslinked to agarose and cross-absorbed by the manufacturer with human and bovine collagens type I, II, III, V and VI to eliminate cross-reactivity. This collagen type IV antibody was shown previously to bind rabbit collagen IV in IHC,^8,9 and recognizes the alpha-1/alpha-2 chains but not the alpha-3 to alpha-6 chains. The keratocan antibody is raised against peptide […]-OH (SEQ ID NO:1). This marker was used to identify keratocytes in situ. […] All corneas in each group had IHC for collagen type IV. Images from each cornea were converted to uniform 300 DPI, 875×568 pixel, files. […] The staining intensity within each box was determined with the analyze histogram function and the mean of three boxes was the intensity value in the anterior or posterior stroma for that cornea.

The subject of series [2] is rabbit corneas after Descemetorhexis. The experiment in a line: Slit lamp opacity, scarring fibrosis and neovascularization one month after Descemetorhexis or sham surgery. The series is classed as in vivo, New Zealand White rabbits. The settings on record: for intensity of opacity in a 2.5 mm circle of central cornea (ImageJ) vs vehicles or oral losartan alone: P<0.05. The protocol: All procedures involving animals were approved by the Institutional Animal Care and Use Committee (IACUC) at the Cleveland Clinic Foundation (Cleveland, OH, USA) and the Animal Care and Use Review Office of the Department of the Army (Fort Detrick, MD). All animals were treated in accordance with the tenets of the ARVO Statement for the Use of Animals in Ophthalmic and Vision Research. Twenty-eight 10- to 15-week-old female New Zealand White rabbits weighing 2.5 to 3.0 kg each were included in this study—four in each group.
The rabbits had general anaesthesia with 30 mg/kg ketamine hydrochloride and 5 mg/kg xylazine by IM injection. In addition, topical proparacaine hydrochloride 1% (Alcon, Ft Worth, TX, USA) was applied to each eye prior to the surgery. One cornea selected at random in each group either had sham surgery without Descemetorhexis or an 8 mm diameter central Descemet's membrane-endothelial excision. The time point of one month after surgery was selected for the study because myofibroblasts and fibrosis in the posterior cornea was maximal at this time point in a prior time course Descemetorhexis study (Sampaio et al., 2021). Descemetorhexis was performed as described in the prior study (Sampaio et al., 2021). Briefly, a wire lid speculum was placed into one eye of each rabbit and an 8 mm diameter gentian violet circle was marked on the epithelial surface for reference. A limbal entry incision was created with a 1.6 mm blade (Bausch and Lomb, Rochester, NY, USA) and 0.3 ml Healon OVD (Abbott Medical Optics Inc. Santa Ana, CA, USA) was injected into the anterior chamber. A reversed Sinskey hook (Katena, Denville, New Jersey, USA) was placed into the anterior chamber and an 8 mm diameter disc of Descemet's membrane and endothelium was excised underlying the 8 mm area previously marked on the anterior corneal surface, without a subsequent endothelial corneal transplant. No removal of Descemet's membrane or endothelium was performed in unwounded sham surgery eyes. Remaining Healon OVD was removed with a Simcoe irrigation and aspiration cannula (Bausch & Lomb, Storz, Rochester, NY, USA) and the anterior chamber was filled with balanced salt solution (BSS). A single 10-0 nylon suture was placed at the incision site to prevent leakage from the anterior chamber. One drop of ciprofloxacin (Alcon, Ft. Worth, TX, USA) was applied to the corneas immediately after surgery and four times a day until the epithelium entry wound healed at approximately 2 days.
The oral solution was prepared with 5 ml distilled water+50 ml ora-plus (suspending vehicle—Perrigo, Dublin, Ireland)+45 ml Ora-sweet (flavored syrup vehicle—Perrigo).
After one month of treatment, study eyes were dilated with two drops of 1% tropicamide (Akom Co., Lake Forest, IL) for thirty minutes. After general anaesthesia, the study eye in each rabbit had standardized slit lamp photographs at 20× magnification with a Haag Streit (Mason, OH, USA) BX900 slit lamp photography system using identical lighting position and intensity. For each study eye, the intensity of a 2.5 mm diameter central circle (not including the light reflex, examples shown in FIG. 1) was determined using ImageJ 1.53a analysis software. Statistical comparisons of the intensity of opacity was performed using the Kruskal-Wallis test followed by post-hoc Dunn's-Bonferroni test and p<0.05 was considered statistically significant

The test system of series [3] is collagen type IV. In words: IHC stromal collagen type IV pixels (ImageJ) one month after -9D PRK. The series is classed as in vivo, New Zealand white rabbits.
Method: Rabbits were euthanized while under ketamine-xylazine general anesthesia with 100 mg/kg Beuthanasia (Shering-Plough, Kenilworth, NJ, USA) by intravenous injection followed by bilateral pneumothorax. The corneo-scleral rims were removed with sharp Westcott scissors (Fairfield, CT, USA) and 0.12 forceps (Storz, St Louis, MO, USA). The corneo-scleral rim was then centered in a 24-mm×24-mm×5-mm mold (Fisher Scientific, Pittsburgh, PA, USA) that was filled with optimal cutting temperature (OCT) compound (Sakura Finetek, Torrance, CA, USA) and quick frozen on dry ice. Blocks were stored at −80° C. until sectioning. Blocks were bisected at the center of the cornea and 10-pm-thick transverse sections were cut from the central cornea with a cryostat (HM 505M; Micron 5 GmbH, Walldorf, Germany). Three sections from each cornea were placed on each 25-mm×75-mm×1-mm Superfrost Plus microscope slide (Fisher Scientific). Slides with sections were maintained at −20° C. prior to immunohistochemistry (IHC).
All images were converted to 300 DPI 900 pixel width×672 pixel height images with Photoshop 22.1.1 (Adobe, San Jose, CA). The mean pixels of stromal α-SMA or stromal collagen type IV were determined in a 900-pixel wide×235-pixel high rectangle (for either α-SMA or collagen type IV quantitation) with ImageJ in three sections for each cornea using the image panels showing only the color of interest. […]
Series [4] relates to central corneal neovascularization (CNV). The experiment in a line: Corneal angiography for central corneal neovascularization after alkali burn. The settings on record: topical six times per day, one month, all four vehicle corneas positive. The series is classed as in vivo, New Zealand White rabbits. How it is done:
Alkali injuries were produced in one eye of rabbits with previously published methods^10 using 1N sodium hydroxide (Sigma, St. Louis, MO) in balanced salt solution (BSS, 0.64% sodium chloride, 0.075% potassium chloride, 0.048% calcium chloride dihydrate, 0.03% magnesium chloride hexahydrate, 0.39% sodium acetate trihydrate, 0.17% sodium citrate dihydrate, pH 7.5, Alcon, Ft. Worth, TX) and a 5 mm diameter circular Whatman No. 1 filter paper (Cat #1001-6508, Fisher Scientific) wetted with 100 μl of 1N NaOH solution. Following the alkali burn injury, the cornea was irrigated profusely with BSS. Each injured cornea also received one drop of ciprofloxacin (Alcon, Ft. Worth, TX, USA) ten minutes after surgery and four times a day for one week and at least 15 minutes apart from the study medications.
Worth TX), at least 5 minutes apart, or 4) 50 μl of BSS.
All corneas had fluorescent angiography at the peak of dye passage in the cornea immediately after injection of 1.5 ml of 10% sodium fluorescein (McKesson, Irvine, TX) in the central ear vein with the slit lamp system and digital camera system using a “barrier filter” that only transmitted 520-530 nm, the peak of fluorescein emission, with broad illumination of the cornea, as previously described.^11

Setting [5] is: Descemetorhexis, topical losartan.

Consider `CCCCc1nc(Cl)c(CO)n1Cc1ccc(-c2ccccc2-c2nn[nH]n2)cc1` [losartan], for which, in the series with collagen type IV [1], the “COL IV staining intensity in the posterior stroma vs vehicle” value is “significantly different” and the “mean intensity units of collagen type IV in the anterior stroma vs vehicle” value is “significantly decreased”. Also, the “scarring fibrosis and neovascularization compared to vehicle control corneas” value in series [2] (Descemetorhexis, oral 5 mg/kg three times a day) was “no difference”. The “scarring fibrosis (slit lamp)” value in series [2] (Descemetorhexis, topical 0.1 mg/ml six times per day) is “overall decrease”. Also, in series [2] (Descemetorhexis, topical 0.1 mg/ml six times per day and oral 5 mg/kg three times a day), the “changes in corneal opacity and neovascularization compared with topical losartan alone” value is “not different”. The “intensity of opacity in a 2.5 mm circle of central cornea (ImageJ) vs vehicles or oral losartan alone” value in series [2] (Descemetorhexis, topical and oral losartan) is recorded as “significant decrease”. Moreover, in series [2] (setting [5]), the “corneal neovascularization that developed after Descemetorhexis” value is “reduced” and the “intensity of opacity in a 2.5 mm circle of central cornea (ImageJ) vs vehicles or oral losartan alone” value is given as “significant decrease”. In addition, in series [2] (oral 5 mg/kg three times per day), the “effect on the transparency of sham unwounded corneas” value is recorded as “no effect”. The “effect on the transparency of sham unwounded corneas” value in series [2] (topical 0.1 mg/ml six times per day) is “no effect”. For the same compound, the “collagen type IV detected in the underlying anterior stroma (IHC) compared with vehicle” value in the series with collagen type IV [3] is listed as “far smaller amounts”. In series [4], the “corneas (of four) that developed central corneal neovascularization” value is on record as “two”.
